Patent publication US20210068395A1, “METHODS OF APPLYING ONE OR MORE CERTAIN HETEROARYL-1,2,4-TRIAZOLE AND HETEROARYL-TETRAZOLE COMPOUNDS TO CONTROL DAMAGE ON PLANTS, PROPAGATION MATERIAL THEREOF, AND PLANT DERIVED PRODUCTS” (SYNGENTA CROP PROTECTION AG, priority 2018, published 2021)

What was measured:
Assay type in all cases: in vivo
[1] = tested on: Diabrotica balteata (corn root worm); experiment: Diabrotica balteata (corn root worm), sprayed maize sprouts; settings: 96 h, application rate 200 ppm, L2 larvae, 4 days after infestation, read-out: control in at least one of the two categories (mortality or growth inhibition)
Method: Maize sprouts placed onto an agar layer in 24-well microtiter plates were treated with aqueous test solutions prepared from 10,000 ppm DMSO stock solutions by spraying. After drying, the plates were infested with L2 larvae (6 to 8 per well). The samples were assessed for mortality and growth inhibition in comparison to untreated samples 4 days after infestation.

[2] = tested on: Euschistus heros (Neotropical Brown Stink Bug); experiment: Euschistus heros feeding/contact activity; settings: 120 h, application rate 200 ppm, N2 nymphs on soybean leaves, 5 days after infestation, read-out: control in at least one of the two categories (mortality or growth inhibition)
Method: Soybean leaves on agar in 24-well microtiter plates were sprayed with aqueous test solutions prepared from 10,000 ppm DMSO stock solutions. After drying the leaves were infested with N2 nymphs. The samples were assessed for mortality and growth inhibition 5 days after infestation.

[3] = tested on: Frankliniella occidentalis (Western Flower Thrips); experiment: Frankliniella occidentalis feeding/contact activity; settings: foliar, 168 h, application rate 200 ppm, mixed ages on sunflower leaf discs, 7 days after infestation
Method: (§1) Sunflower leaf discs were placed on agar in 24-well microtiter plates and sprayed with aqueous test solutions prepared from 10,000 DMSO stock solutions. After drying the leaf discs were infested with a Frankliniella population of mixed ages. The samples were assessed for mortality 7 days after infestation.

[4] = tested on: Myzus persicae (Green Peach Aphid); experiment: Myzus persicae feeding/contact activity; settings: foliar, 144 h, application rate 200 ppm, sunflower leaf discs sprayed, 6 days after infestation
Method: Sunflower leaf discs were placed onto agar in a 24-well microtiter plate and sprayed with aqueous test solutions prepared from 10,000 ppm DMSO stock solutions. After drying, the leaf discs were infested with an aphid population of mixed ages. The samples were assessed for mortality 6 days after infestation.

[5] = tested on: Myzus persicae (Green Peach Aphid); experiment: Myzus persicae systemic activity; settings: 144 h, test rate 24 ppm, roots of pea seedlings in test solution, 6 days
Method: Roots of pea seedlings infested with an aphid population of mixed ages were placed directly into aqueous test solutions prepared from 10,000 DMSO stock solutions. The samples were assessed for mortality 6 days after placing seedlings into test solutions.

[6] = tested on: Myzus persicae (Green Peach Aphid); experiment: Myzus persicae feeding activity (sucrose solution, Parafilm); settings: 120 h, test rate 12.5 ppm, in sucrose solution, 5 days after infestation
Method: Test compounds prepared from 10,000 ppm DMSO stock solutions were applied by pipette into 24-well microtiter plates and mixed with sucrose solution. The plates were closed with a stretched Parafilm. A plastic stencil with 24 holes was placed onto the plate and infested pea seedlings were placed directly on the Parafilm. The infested plate was closed with a gel blotting paper and another plastic stencil and then turned upside down. The samples were assessed for mortality 5 days after infestation.

[7] = tested on: Plutella xylostella (Diamond Back Moth); experiment: Plutella xylostella feeding/contact activity, 96-well artificial diet; settings: 216 h, application rate 500 ppm, 9 days after infestation
Method: 1, 2, 3, 4, 17, 19, 23, 26, 39, 41, 42, 54, 55, 56 Plutella xylostella (Diamond Back Moth):Feeding/Contact Activity 96-well microtiter plates containing artificial diet were treated with aqueous test solutions, prepared from 10,000 ppm DMSO stock solutions, by a liquid handling robot. After drying, eggs (˜30 per well) were infested onto a netted lid which was suspended above the diet. The eggs hatch and L1 larvae move down to the diet. The samples were assessed for mortality 9 days after infestation.

[8] = tested on: Spodoptera littoralis (Egyptian Cotton Leaf Worm); experiment: Spodoptera littoralis feeding/contact activity; settings: foliar, 72 h, application rate 200 ppm, L1 larvae on cotton leaf discs, 3 days after infestation, read-out: control in at least one of the three categories (mortality or growth inhibition or anti-feeding)
Method: Cotton leaf discs were placed onto agar in 24-well microtiter plates and sprayed with aqueous test solutions prepared from 10,000 ppm DMSO stock solutions. After drying the leaf discs were infested with five L1 larvae. The samples were assessed for mortality, anti-feeding and growth inhibition 3 days after infestation.

[9] = tested on: Thrips tabaci (Onion thrips); experiment: Thrips tabaci feeding/contact activity; settings: foliar, 144 h, application rate 200 ppm, sunflower leaf discs, 6 days after infestation, read-out: control in at least one of the two categories (mortality or anti-feeding)
Method: as §1, with “10,000 ppm” for “10,000”, “thrips” for “Frankliniella”, “mortality, and anti-feeding 6” for “mortality 7”

[10] = tested on: Aphis craccivora (Black Bean Aphid); experiment: Aphis craccivora mixed population, contact/feeding; settings: 120 h, test rate 200 ppm, pea seedlings sprayed, 5 days after treatment
Method: Pea seedlings infested with mixed aged aphid population were treated with diluted test solutions in a spray chamber. 5 days after treatment, samples were assessed for mortality.

[11] = tested on: Aphis craccivora (Black Bean Aphid); experiment: Aphis craccivora mixed population, systemic/feeding; settings: 120 h, test rate 12.5 ppm, pea seedlings in test solutions, 5 days
Method: Pea seedlings infested with mixed aged aphid population, were put into glass vials with test solutions. 5 days later, samples were assessed for mortality.

[12] = tested on: Carpocapsa (Cydia) Pomonella (Codling Moth); experiment: Carpocapsa (Cydia) pomonella larvicide, feeding/contact; settings: 336 h, test rate 50 ppm, L1 larvae on diet cubes, 14 days after infestation, read-out: control in at least one of the two categories (mortality or growth inhibition)
Method: Diet cubes coated with paraffin were sprayed with diluted test solutions in an application chamber. After drying off the treated cubes (10 replicates) were infested with 1 L1 larvae. Samples were incubated at 26-27° C. and checked 14 days after infestation for mortality and growth inhibition.

[13] = tested on: Chrysodeixis includens (Soybean Looper); experiment: Chrysodeixis includens larvicide, feeding/contact; settings: 120 h, test rate 50 ppm, L2 larvae on soybean leaves, 5 days after infestation, read-out: control in at least one of the two categories (mortality or growth inhibition)
Method: Soybean plants were treated in a spray chamber, cut off and placed into petri dishes containing wet filter paper. 1 d after application leaves were infested with 5 L2 larvae and covered with a fabric filter and plastic lids. 5 days after infestation the samples were assessed for mortality and growth inhibition.

[14] = tested on: Nilaparvata lugens (Brown Plant Hopper); experiment: Nilaparvata lugens larvicide, feeding/contact; settings: 168 h, test rate 200 ppm, N3 nymphs on sprayed rice plants, 7 days after treatment, read-out: control in at least one of the two categories (mortality or growth inhibition)
Method: Rice plants were treated with the diluted test solutions in a spray chamber. After drying plants were infested with ˜20 N3 nymphs. 7 days after the treatment samples were assessed for mortality and growth inhibition.

[15] = tested on: Nilaparvata lugens (Brown Plant Hopper); experiment: Nilaparvata lugens larvicide, systemic into water; settings: 168 h, test rate 12.5 ppm, into nutritive solution of rice plants, N3 nymphs, 7 days after infestation, read-out: control in at least one of the two categories (mortality or growth inhibition)
Method: Rice plants cultivated in a nutritive solution were treated with the diluted test solutions into nourishing cultivation system. 1 day after application plants were infested with ˜20 N3 nymphs. 7 days after infestation samples were assessed for mortality and growth inhibition.

[16] = tested on: Chilo suppressalis (Striped Stem Borer); experiment: Chilo suppressalis larvicide, feeding/contact; settings: 120 h, test rate 200 ppm, L2 larvae on sprayed rice plants, 5 days after application
Method: Rice plants were treated in a spray chamber, cut off and placed into petri dishes containing wet filter paper. 10 L2 larvae were infested and covered up with a cotton filter and a lid. 5 days after application samples were assessed for mortality.

[17] = tested on: Aedes aegypti (Yellow Fever Mosquito); experiment: whole plant or invertebrate; settings: test rate 200 ppm, adult females, mortality assessed at 24 and 48 hours
Method: (§2) Test solutions, at an application rate of 200 ppm in ethanol, were applied to 12 well tissue culture plates. Once the deposits were dry, five, two to five day old adult female Aedes aegypti were added to each well, and sustained with a 10% sucrose solution in a cotton wool plug. Assessment of knockdown was made one hour after introduction, and mortality was assessed at 24 and 48 hours after introduction.

[18] = tested on: Anopheles stephensi (Indian Malaria Mosquito); experiment: Anopheles stephensi adult contact on treated plates; settings: test rate 200 ppm, adult females, mortality assessed at 24 and 48 hours
Method: as §2, with “Anopheles stephensi” for “Aedes aegypti”

[19] = tested on: Plutella xylostella (Diamond Back Moth); experiment: Plutella xylostella feeding/contact activity, 24-well artificial diet; settings: 192 h, application rate 200 ppm, 24-well artificial diet, 8 days after infestation, read-out: control in at least one of the two categories (mortality or growth inhibition)
Method: 24-well microtiter plates with artificial diet were treated with aqueous test solutions prepared from 10,000 ppm DMSO stock solutions by pipetting. After drying, Plutella eggs were pipetted through a plastic stencil onto a gel blotting paper and the plate was closed with it. The samples were assessed for mortality and growth inhibition in comparison to untreated samples 8 days after infestation.

[20] = tested on: Spodoptera littoralis (Egyptian Cotton Leaf Worm); experiment: Spodoptera littoralis systemic activity (lettuce); settings: 144 h, test rate 12.5 ppm, root uptake in lettuce, 6 days after infestation, read-out: control in at least one of the three categories (mortality or growth inhibition or anti-feeding)
Source text: Test compounds were applied by pipette prepared from 10,000 ppm DMSO stock solutions into 24-well plates and mixed with agar. Lettuce seeds were placed onto the agar and the multi well plate was closed by another plate which contained also agar. After 7 days the compound was absorbed by the roots and the lettuce grew into the lid plate. The lettuce leaves were then cut off into the lid plate. Spodoptera eggs were pipetted through a plastic stencil onto a humid gel blotting paper and the lid plate was closed with it. The samples were assessed for mortality, anti-feeding and growth inhibition 6 days after infestation.

| Compound | percent control (mortality or growth inhibition) at 200 ppm [1] | percent control (mortality or growth inhibition) at 200 ppm [2] | mortality at 200 ppm [3] | mortality at 200 ppm [4] | mortality at 24 ppm [5] | mortality at 12.5 ppm [6] | mortality at 500 ppm [7] | percent control (mortality, anti-feedant effect or growth inhibition) at 200 ppm [8] | percent control (mortality, anti-feedant effect or growth inhibition) at 200 ppm [9] | mortality at 200 ppm [10] | mortality at 12.5 ppm [11] | percent control (mortality or growth inhibition) at 50 ppm [12] | percent control (mortality or growth inhibition) at 50 ppm [13] | percent control (mortality or growth inhibition) at 200 ppm [14] | percent control (mortality or growth inhibition) at 12.5 ppm [15] | mortality at 200 ppm [16] | mortality at 200 ppm [17] | mortality at 200 ppm [18] | percent control (mortality or growth inhibition) at 200 ppm [19] | percent control (mortality, anti-feedant effect or growth inhibition) at 12.5 ppm [20] |
| --- | --- | --- | --- | --- | --- | --- | --- | --- | --- | --- | --- | --- | --- | --- | --- | --- | --- | --- | --- | --- |
| C#CCN(C(=O)c1cc(C(F)(F)F)cc(C(F)(F)F)c1)C(C)c1ncnn1-c1ncccn1 (stereo not shown) [Compound 2] | ≥ 80% | ≥ 80% | ≥ 80% | ≥ 80% | ≥ 80% | ≥ 80% | ≥ 80% | ≥ 80% | ≥ 80% | ≥ 80% | ≥ 80% | ≥ 80% | ≥ 80% | ≥ 80% | ≥ 80% | ≥ 80% | ≥ 60% | ≥ 60% | – | – |
| C[C@H](NC(=O)c1cc(C(F)(F)F)cc(C(F)(F)F)c1)c1ncnn1-c1ncccn1 [Compound 17] | ≥ 80% | ≥ 80% | – | ≥ 80% | ≥ 80% | ≥ 80% | ≥ 80% | ≥ 80% | ≥ 80% | – | – | ≥ 80% | ≥ 80% | – | – | ≥ 80% | – | – | ≥ 80% | ≥ 80% |
| CC(c1ncnn1-c1ncccn1)N(CC1CC1)C(=O)c1cc(Cl)cc(OC(F)(F)F)c1 (stereo not shown) [Compound 26] | ≥ 80% | – | – | ≥ 80% | – | ≥ 80% | ≥ 80% | ≥ 80% | – | – | – | ≥ 80% | ≥ 80% | ≥ 80% | ≥ 80% | ≥ 80% | – | – | ≥ 80% | ≥ 80% |
| CCN(C(=O)c1cc(C(F)(F)F)cc(C(F)(F)F)c1)C(C)c1ncnn1-c1ncccn1 (stereo not shown) [Compound 39] | ≥ 80% | ≥ 80% | – | ≥ 80% | ≥ 80% | ≥ 80% | ≥ 80% | ≥ 80% | ≥ 80% | – | – | ≥ 80% | ≥ 80% | ≥ 80% | ≥ 80% | ≥ 80% | – | – | ≥ 80% | ≥ 80% |
| CC(c1ncnn1-c1ccccn1)N(CC1CC1)C(=O)c1cc(C(F)(F)F)cc(C(F)(F)F)c1 (stereo not shown) [Compound 74] | ≥ 80% | – | – | – | – | – | ≥ 80% | ≥ 80% | – | – | – | ≥ 80% | ≥ 80% | – | ≥ 80% | ≥ 80% | – | – | ≥ 80% | ≥ 80% |
